Our source for the MIC and ED50 values is patent publication US5106842A, “Antibiotic C-3 cyclobutenedione substituted (1-carba)cephalosporin compounds, compositions, and methods of use thereof” (Bristol-Myers Squibb Co., priority 1990, dated 1992).

Assay [1] relates to E. coli A15119. In words: in vitro MIC vs. E. coli A15119. To be noted: Escherichia coli. Format: cell-based. The text has this:
Also included in the table is the in vitro MIC's.
(§1) MIC (mcg/ml) i.m. vs E. coli A15119

Assay [2] concerns E. coli A15119. In words: in vivo therapeutic efficacy after intramuscular administration to mice infected intraperitoneally (PD50). As to conditions: Escherichia coli, A15119, im. How it is done:
The in vivo therapeutic efficacy of two representative compounds after intramuscular administration to mice infected intraperitoneally with 0.5 ml of various bacterial suspension is shown in Table I. The values are given in PD50 (dose in mg/kg) to give protection to 50% of the infected mice.
as §1

[3] abbreviates: read-out: PD50 i.m. vs E. coli A15119, 41 LD50.

Values after ≈ are worked out from the molar mass of the structure shown. Like-named read-outs stand apart in the source and are kept apart here.

`CO/N=C(\C(=O)N[C@@H]1C(=O)N2C(C(=O)O)=C(c3c(OC(C)C)c(=O)c3=O)CS[C@H]12)c1csc(N)n1` [Id3]: inhibition of growth in the assay with E. coli A15119 [1] (MIC) required 1 µg/mL (≈ 1.92 µM). For the same compound, the ED50 in the assay on E. coli A15119 [2] (setting [3]) was 1.4 mg/kg; in the assay on E. coli A15119 [2] (mice, i.m. dosing, infected i.p. with 0.5 ml bacterial suspension, challenge 143 LD50, dose protecting 50% of infected mice, read-out: PD50 i.m. vs E. coli A15119, 143 LD50) it was greater than 25 mg/kg.

For the compound `CO/N=C(\C(=O)N[C@@H]1C(=O)N2C(C(=O)O)=C(c3c(N)c(=O)c3=O)CC[C@H]12)c1csc(N)n1` (relative stereo) [Id6], the MIC against E. coli A15119 [1] turned out to be 0.06 µg/mL (≈ 0.13 µM). The ED50 in the assay on E. coli A15119 [2] (setting [3]) was less than 0.098 mg/kg; in the assay with E. coli A15119 [2] (read-out: PD50 i.m. vs E. coli A15119, 143 LD50), 1.7 mg/kg.
